The record followed here is patent US5106856A, “[(Arylalkylpiperidin-4-yl)methyl]-2a,3,4,5-tetrahydro- 1(2H)-acenaphthylen-1-ones and related compounds” (priority 1991, dated 1992).

For assay [1], the target named is T1, Brain AChE (acetylcholinesterase, rat striatum) (Rattus norvegicus, UniProt P37136).
T1 construct: corpora striata dissected free, weighed and homogenized in 19 volumes; from tissue; host or cells: corpus striatum homogenate of male Wistar rats
Kind of assay: In vitro inhibition of acetylcholinesterase activity in rat striatum. It counts as biochemical, rat (male Wistar). To be noted: read-out: Inhibitory Concentration, Brain AChE. On the procedure: Cholinesterases are found throughout the body, both in the brain and in serum. However, only brain acetylcholinesterase (AChE) distribution is correlated with central cholinergic innervation.
The method described below was used in this invention for assaying cholinesterase activity.
4. A 2 mM stock solution of the test drug is made up in a suitable solvent and q.s. to volume with 0.5 mM DTNB (reagent 3). Drugs are serially diluted (1:10) such that the final concentration (in cuvette) is 10^-4 M and screened for activity. If active, IC50 values are determined from the inhibitory activity of subsequent concentrations.
Male Wistar rats are decapitated, brains rapidly removed, corpora striata dissected free, weighed and homogenized in 19 volumes (approximately 7 mg protein/ml) of 0.05M phosphate buffer, pH 7.2 using a Potter-Elvehjem homogenizer. A 25 microliter aliquot of the homogenate is added to 1.0 milliter vehicle or various concentrations of the test drug and preincubated for 10 minutes at 37° C.
Enzyme activity is measured with the Beckman DU-50 spectrophotometer. This method can be used for IC50 determinations and for measuring kinetic constants.
Substrate concentration is 10 mM diluted 1:2 in assay yielding final concentration of 5 mM. DTNB concentration is 0.5 mM yielding 0.25 mM final concentration. [formula]
IC50 values are calculated from log-probit analysis.

Assay [2] concerns Scopolamine Induced Memory Deficit. The assay can be described thus: Dark Avoidance Assay (reversal of scopolamine induced memory deficit). Format: in vivo. The settings on record: mice, s.c., tested again 24 hours later. As for the experimental part: In this assay mice are tested for their ability to remember an unpleasant stimulus for a period of 24 hours. A mouse is placed in a chamber that contains a dark compartment; a strong incandescent light drives it to the dark compartment, where an electric shock is administered through metal plates on the floor. The animal is removed from the testing apparatus and tested again, 24 hours later, for the ability to remember the electric shock.
If scopolamine, an anticholinergic that is known to cause memory impairment, is administered before an animal's initial exposure to the test chamber, the animal re-enters the dark compartment shortly after being placed in the test chamber 24 hours later. This effect of scopolamine is blocked by an active test compound, resulting in a greater interval before re-entry into the dark compartment.
The results for an active compound are expressed as the percent of a group of animals in which the effect of scopolamine is blocked, as manifested by an increased interval between being placed in the test chamber and re-entering the dark compartment.
Results of this assay for some of the compounds of this invention and those for tacrine and pilocarpine (reference compounds) are presented in Table 2.

Counter-ions that a name gives are not always drawn.

T1 sequence (P37136 32-614): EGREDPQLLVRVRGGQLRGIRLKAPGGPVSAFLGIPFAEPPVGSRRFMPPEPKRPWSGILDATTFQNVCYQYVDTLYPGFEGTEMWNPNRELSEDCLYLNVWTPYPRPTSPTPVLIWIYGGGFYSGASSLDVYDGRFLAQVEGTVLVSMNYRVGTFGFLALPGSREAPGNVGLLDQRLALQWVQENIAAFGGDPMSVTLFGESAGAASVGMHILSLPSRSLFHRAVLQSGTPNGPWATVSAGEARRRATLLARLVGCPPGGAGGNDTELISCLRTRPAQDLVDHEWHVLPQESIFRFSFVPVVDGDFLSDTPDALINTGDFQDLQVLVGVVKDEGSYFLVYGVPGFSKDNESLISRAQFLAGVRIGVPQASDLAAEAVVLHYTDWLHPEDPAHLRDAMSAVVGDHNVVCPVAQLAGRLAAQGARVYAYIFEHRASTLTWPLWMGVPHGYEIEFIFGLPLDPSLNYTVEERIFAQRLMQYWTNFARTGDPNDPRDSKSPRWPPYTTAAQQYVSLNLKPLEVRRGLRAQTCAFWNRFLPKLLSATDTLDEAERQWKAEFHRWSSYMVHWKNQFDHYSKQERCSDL

Turning to `O=C1c2cccc3c2C(CCC3)C1CC1CCN(Cc2ccccc2)CC1` (stereo not shown) [2-[(N-Benzylpiperidin-4-yl)methyl]-2a,3,4,5-tetrahydro-1(2H)-acenaphthylen-1-one hydrochloride], the IC50 in assay [1] stood at 1020 nM.

`O=C1c2cccc3c2C(CCC3)C1CC1CCN(Cc2cccc(F)c2)CC1` (stereo not shown) [2-[[N-(3-Fluorobenzyl)piperidin-4-yl]methyl]-2a,3,4,5-tetrahydro-1(2H)-acenaphthylen-1-one hydrochloride]: the “% of Animals with Scopolamine Induced Memory Deficit Reversal” value in assay [2] (0.1 mg/kg of body weight) was 20%. Also, the IC50 in assay [1] amounted to 4100 nM.

For the compound `CC[C@@H]1C(=O)OC[C@@H]1Cc1cncn1C` [Pilocarpine, reference compound], the “% of Animals with Scopolamine Induced Memory Deficit Reversal” value in assay [2] (5 mg/kg of body weight) turned out to be 23%.
